The text below walks through data of PubChem BioAssay (NCI).

Some test systems named below: MOLT-4 leukemia; OVCAR-3 ovarian; KM12 colon; RXF 393 renal; EKVX NSCLC; M14 melanoma; COLO 205 colon; T-47D breast; OVCAR-5 ovarian; HT29 colon.
Common to all, as to assay: inhibition of tumour cell growth, NCI panel, 48 h

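Five concentrations, 48 hours, 96-well plates. GI50 marks 50% less growth. At the TGI there is no net growth.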 Bounds are passed on as bounds.

For `c1ccc(Nc2ncc(-c3ccccc3)o2)cc1`, the GI50 with MOLT-4 leukemia was above 25 µM; in the test on OVCAR-3 ovarian it was above 25 µM; in the test on KM12 colon, 10.7 µM; with RXF 393 renal, above 19.7 µM; with EKVX NSCLC it was above 25 µM; with M14 melanoma it was above 25 µM. The GI50 in the test with COLO 205 colon, with T-47D breast, with OVCAR-5 ovarian and in the test with HT29 colon was above 25 µM in each case. Also, the TGI with MOLT-4 leukemia, with OVCAR-3 ovarian, with KM12 colon, in the test with RXF 393 renal, with EKVX NSCLC and with M14 melanoma was above 25 µM in each case. Also, the TGI with COLO 205 colon, in the test on T-47D breast, in the test with OVCAR-5 ovarian and in the test with HT29 colon was above 25 µM throughout.
As to `NC(=S)N/N=C1\c2cc(Cl)ccc2-c2c1cc(Cl)cc2[N+](=O)[O-]`, the GI50 in the test with MOLT-4 leukemia was 3.21 µM; in the test with OVCAR-3 ovarian, 4.66 µM; with KM12 colon it was 5.14 µM; with RXF 393 renal, 10.4 µM; with EKVX NSCLC it was 4.65 µM; in the test on M14 melanoma, 3.27 µM. Besides, the GI50 with COLO 205 colon is 3.84 µM; in the test on T-47D breast, 2.07 µM; in the test on OVCAR-5 ovarian, 11 µM; in the test with HT29 colon it was 10 µM. Also, the TGI with MOLT-4 leukemia is 23.6 µM; in the test with OVCAR-3 ovarian it was 40.8 µM; with KM12 colon, 88.8 µM; in the test with RXF 393 renal, 89.4 µM; in the test on EKVX NSCLC, 95.6 µM; in the test on M14 melanoma, above 100 µM. In addition, the TGI was 22.2 µM in the test on COLO 205 colon, 7.65 µM in the test with T-47D breast, above 100 µM in the test on OVCAR-5 ovarian and 61.2 µM with HT29 colon.
In the case of `COC(=O)/C=C/c1cc(OC(C)=O)c2c(c1)[C@@H](C(=O)OC)[C@H](c1ccc(OC(C)=O)c(OC(C)=O)c1)O2`, the GI50 was 0.09 µM in the test with MOLT-4 leukemia; 0.0267 µM in the test with OVCAR-3 ovarian; 0.203 µM with KM12 colon; 0.075 µM in the test with RXF 393 renal; 2.38 µM in the test on EKVX NSCLC; 0.0338 µM with M14 melanoma. Besides, the GI50 in the test on COLO 205 colon was 3.57 µM; with T-47D breast it was 0.452 µM; with OVCAR-5 ovarian it was 0.95 µM; in the test on HT29 colon, 1.68 µM. For the same molecule, the TGI was above 55 µM in the test on MOLT-4 leukemia; 0.0681 µM in the test with OVCAR-3 ovarian; 18.7 µM in the test on KM12 colon; 3.03 µM in the test with RXF 393 renal; above 94.3 µM in the test on EKVX NSCLC; 39 µM in the test on M14 melanoma. Besides, the TGI in the test with COLO 205 colon was 24.7 µM; in the test with T-47D breast it was 67.3 µM; in the test on OVCAR-5 ovarian, above 100 µM; in the test on HT29 colon, above 58.7 µM.
In the case of `COCCn1cc(-c2nc(-c3cc4cccnc4[nH]3)cs2)c2cc(OC)ccc21`, the GI50 is 4.24 µM in the test with MOLT-4 leukemia; 4.28 µM in the test with OVCAR-3 ovarian; 0.203 µM with KM12 colon; 0.95 µM with RXF 393 renal; 0.0827 µM with EKVX NSCLC; 4.8 µM in the test on M14 melanoma. Besides, the GI50 in the test on COLO 205 colon is 4.01 µM; with T-47D breast it was 0.033 µM; with OVCAR-5 ovarian, 0.524 µM; in the test on HT29 colon, 3.71 µM. In addition, the TGI is above 46.7 µM in the test with MOLT-4 leukemia; 21.7 µM in the test with OVCAR-3 ovarian; 9.38 µM in the test on KM12 colon; 5.41 µM with RXF 393 renal; 4.43 µM in the test with EKVX NSCLC; above 100 µM in the test with M14 melanoma. For the same molecule, the TGI was 24.7 µM in the test on COLO 205 colon, 0.992 µM in the test on T-47D breast, above 96.4 µM in the test with OVCAR-5 ovarian and above 81.2 µM with HT29 colon.
For the molecule `COc1cc2c(cc1OC)C(Cl)C(c1ccc(F)cc1)=C2Cl` (centres undefined), the TGI in the test on MOLT-4 leukemia was found to be 13.1 µM; in the test with OVCAR-3 ovarian it was 30.6 µM; with KM12 colon, 32.3 µM; with RXF 393 renal it was 30.1 µM; in the test with EKVX NSCLC, 40.7 µM; in the test on M14 melanoma it was 29.2 µM. Further, the TGI turned out to be 31 µM with COLO 205 colon, 21.7 µM in the test on T-47D breast, 30.2 µM with OVCAR-5 ovarian and 32.5 µM in the test on HT29 colon.
As to `C/C=C/[C@@H]1O[C@@H]2COC(=O)C2=C[C@@H]1O`, the GI50 was 2.2 µM with MOLT-4 leukemia; 4.19 µM in the test on OVCAR-3 ovarian; 20.5 µM in the test with KM12 colon; 15 µM in the test with RXF 393 renal; 17.5 µM in the test with EKVX NSCLC; 13.7 µM in the test on M14 melanoma. Moreover, the GI50 in the test with COLO 205 colon is 2.78 µM; in the test on T-47D breast, 6.31 µM; in the test with OVCAR-5 ovarian, 19.2 µM; in the test with HT29 colon it was 5.73 µM. The TGI in the test with OVCAR-3 ovarian was 22.2 µM; with KM12 colon, 53.2 µM; in the test on RXF 393 renal it was 39.7 µM; with EKVX NSCLC, 36.7 µM; in the test on M14 melanoma it was 35.3 µM; in the test on COLO 205 colon, above 19.6 µM. Further, the results for the TGI in the test with T-47D breast, in the test on OVCAR-5 ovarian and in the test with HT29 colon were 24.2 µM, 37.1 µM and 46 µM, respectively.
`CC(=O)OC1(C)N=NC2(CCCCC2)O1` (centres undefined): the TGI in the test with MOLT-4 leukemia, in the test on OVCAR-3 ovarian, with KM12 colon, in the test on RXF 393 renal, in the test on EKVX NSCLC and in the test with M14 melanoma was above 100 µM throughout. The TGI in the test with COLO 205 colon, with T-47D breast, in the test on OVCAR-5 ovarian and in the test with HT29 colon was above 100 µM in each case.
Take `CN1CCN(C(=O)COc2ccc(C34CC5CC(CC(C5)C3)C4)cc2)CC1`: the GI50 is 13.2 µM with MOLT-4 leukemia; 13.4 µM with OVCAR-3 ovarian; 14.8 µM in the test with KM12 colon; 7.44 µM in the test with RXF 393 renal; 24.6 µM in the test with EKVX NSCLC; 15.3 µM in the test with M14 melanoma. In addition, the GI50 was 5.53 µM in the test on COLO 205 colon, 12.9 µM with T-47D breast, 17.6 µM in the test with OVCAR-5 ovarian and 4.66 µM in the test on HT29 colon. For the same molecule, the TGI in the test on MOLT-4 leukemia was 94.9 µM; in the test on OVCAR-3 ovarian, 27.3 µM; in the test with KM12 colon, 32.4 µM; in the test with RXF 393 renal, 21.1 µM; with EKVX NSCLC, above 100 µM; with M14 melanoma, 30.7 µM. Further, the TGI in the test with COLO 205 colon stood at 20.5 µM; in the test on T-47D breast, 39.2 µM; in the test on OVCAR-5 ovarian it was 44.6 µM; in the test with HT29 colon, 19.1 µM.
